Drawing on PMC9190014, “Structure, dynamics, and molecular inhibition of the Staphylococcus aureus m^1A22-tRNA methyltransferase TrmK” (The Journal of Biological Chemistry, 2022), this text covers Kd and inhibition for four compounds.

For assay [1], the target named is T1, m1A22-tRNA methyltransferase TrmK (SaTrmK) (Staphylococcus aureus, UniProt Q2FY13).
T1 construct: gene SAOUHSC_01661; recombinant SaTrmK, His-tag cleaved by TEVP, N-terminal glycine residue left
As to the kind of experiment: ITC; co-crystal structure at […] Å; DSF. Format: binding. In general terms: Isothermal titration calorimetry measures the heat released or taken up as one component is titrated into another.

In assay [2] the target is T1, m1A22-tRNA methyltransferase TrmK (SaTrmK). As to the kind of experiment: intact-mass ESI-MS and LC-MS/MS peptide mapping of covalent adduct; MTase-Glo inhibition assay. Format: binding.
Assay [3] has the same target. The assay can be described thus: MTase-Glo methyltransferase assay with tRNA-Leu, single concentration. Format: biochemical.
The target is the same in assay [4]. The assay can be described thus: ITC; co-crystal structure at […] Å; DSF. Format: binding. This is another data set of the same source.

Like-named read-outs stand apart in the source and are kept apart here.

T1 sequence (Q2FY13 entry or part of it): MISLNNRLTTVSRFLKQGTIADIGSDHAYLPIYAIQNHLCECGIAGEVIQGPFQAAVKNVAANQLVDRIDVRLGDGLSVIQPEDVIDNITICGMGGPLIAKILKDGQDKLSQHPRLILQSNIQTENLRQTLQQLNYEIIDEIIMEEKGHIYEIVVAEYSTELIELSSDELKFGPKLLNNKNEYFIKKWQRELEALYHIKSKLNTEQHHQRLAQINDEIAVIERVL

Regarding `Nc1ncnc2c1ncn2[C@@H]1O[C@H](CSCC[C@H](N)C(=O)O)[C@@H](O)[C@H]1O` [SAH], in assay [1], the Kd is 0.94 ± 0.05 µM. As for `CC1=CC(=O)c2c(O)cccc2C1=O` [plumbagin, 5-hydroxy-2-methyl-1,4-naphtoquinone], the inhibition at 5 µM in assay [2] is about 93%.

Turning to `Nc1ncnc2c1ncn2[C@@H]1O[C@H](C[C@@H](N)CC[C@H](N)C(=O)O)[C@@H](O)[C@H]1O` [sinefungin], the inhibition at 10 µM in assay [3] is about 98%.

Consider `C[S@@+](CC[C@H](N)C(=O)O)C[C@H]1O[C@@H](n2cnc3c(N)ncnc32)[C@H](O)[C@@H]1O` [SAM], for which, in assay [4], the Kd was 39 ± 4 µM.

As a reminder, the Kd is the concentration at which binding is half-saturated. Higher therefore signals a looser complex. The inhibition is how much of the control response was suppressed.
